Several values for one entry are separate records, joined by “and”; a condition that tells them apart may be missing. Equal values may be shown once. Read-outs that look alike come from different tables or passages of the source.
Assays:
[1] = system: solid tumors; details: cited from earlier work
[2] = system: V79 cells; experiment: Drug uptake in the presence of ammonium chloride; type: cell-based, Chinese hamster; details: aerobic V79 cells, 60 μM input, 50 mM NH4Cl (stated for THNLA-1)
Protocol: Uptake measurements in the presence of the lysosomotropic agent ammonium chloride (NH4 Cl) also were performed in a manner as previously described.
Concentrations were determined by UV spectrophotometry at 330 nm. The plotted points represent the mean of two experiments.

[3] = system: V79 Chinese hamster lung cells; experiment: Radiosensitization of V79 cells; type: cell-based; details: for EC (SER 1.6): Cricetulus griseus
Protocol: (§1) Samples of V79 Chinese hamster lung cells used in the following experiments were prepared as follows. V79 cells, exponentially growing as monolayer cultures in RPMI 1640 medium (Mediatech) supplemented with 10% fetal calf serum, were trypsinized, centrifuged for 5 min, harvested, then suspended in 25 ml Erlenmeyer flasks fitted with rubber caps at 5×10^5 cells/ml (5 ml). Individual flasks either were shaken (100 rpm) at 37° C. under aerobic conditions or made hypoxic by gassing with a 95% N2 (nitrogen)/5% CO2 (carbon dioxide) humidified gas mixture for 1 hour.
Radiosensitization studies were performed on V79 cells in a manner similar to the acute toxicity experiments, except that the survival fraction was determined after a predetermined radiation dose. […] One Gy is equal to 100 rads, wherein one rad is the quantity of ionizing radiation that results in the absorption of 100 ergs of energy per gram of irradiated material. Hypoxia was maintained throughout irradiation. […] Sensitization enhancement ratios (SER) were determined at a 10% survival level. […] The plotted points in FIGS. 3 and 4 represent the mean of 2 or 3 replicate experiments.

[4] = system: V79 Chinese hamster lung cells; experiment: Acute aerobic and hypoxic cytotoxicity (colony formation); type: cell-based
Protocol: as §1
(§2) To determine the fraction of surviving cells, samples were removed, diluted and plated to provide 2×10^2 to 2×10^4 cells/well on 60 mm Linbro multi-well plates (Flow Laboratories, McLean, Virginia). The plates were incubated at 37° C. for 6 days, stained with crystal violet and examined for colony formation. Colonies of 50 cells or greater were counted. Each plotted point in FIGS. 1 and 2 represent the mean of three or four replicate experiments.

[5] = as above; type: cell-based, Chinese hamster; details: chinese hamster, aerobic v79 cells, V79 cells, aerobic, 1 hour, 37° C.; 50% inhibition of clonogenicity
Protocol: as §1, §2

[6] = target: T1, calf thymus Topo I (Bos taurus, UniProt F1MN93); experiment: Topoisomerase I interaction (relaxation of supercoiled DNA); type: biochemical
T1 construct: purchased TopoGEN, Inc., Columbus, Ohio; host or cells: calf thymus
T1 sequence (F1MN93 1-767): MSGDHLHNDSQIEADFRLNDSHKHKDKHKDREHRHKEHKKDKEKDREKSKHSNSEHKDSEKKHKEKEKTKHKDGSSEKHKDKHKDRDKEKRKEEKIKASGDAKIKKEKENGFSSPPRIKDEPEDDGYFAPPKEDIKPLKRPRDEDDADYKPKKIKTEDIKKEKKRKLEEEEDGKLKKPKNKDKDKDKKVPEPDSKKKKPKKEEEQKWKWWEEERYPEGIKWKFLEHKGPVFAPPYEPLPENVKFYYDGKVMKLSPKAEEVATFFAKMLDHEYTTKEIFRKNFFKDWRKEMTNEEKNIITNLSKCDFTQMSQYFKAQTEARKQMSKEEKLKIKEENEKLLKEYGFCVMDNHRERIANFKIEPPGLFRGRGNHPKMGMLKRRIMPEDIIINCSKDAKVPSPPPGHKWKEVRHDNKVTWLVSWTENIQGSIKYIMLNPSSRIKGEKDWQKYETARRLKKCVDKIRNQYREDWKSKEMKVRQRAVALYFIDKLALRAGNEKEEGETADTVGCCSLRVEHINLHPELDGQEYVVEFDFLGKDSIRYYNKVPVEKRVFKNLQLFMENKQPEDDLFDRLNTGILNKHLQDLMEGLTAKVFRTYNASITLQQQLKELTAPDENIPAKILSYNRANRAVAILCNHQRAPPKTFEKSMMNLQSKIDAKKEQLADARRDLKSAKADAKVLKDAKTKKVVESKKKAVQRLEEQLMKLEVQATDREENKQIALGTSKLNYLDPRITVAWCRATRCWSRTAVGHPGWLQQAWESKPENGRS
Protocol: In particular, a Topo I drug screening kit (TopoGEN, Inc., Columbus, Ohio) was used to assay the topoisomerase I THNLA-1 interaction. […] Camptothecin is a Topoisomerase I poison used as an anticancer drug. Camptothecin stabilizes the Topo I-DNA cleavable complex, and therefore prevents the resealing of DNA by Topo-I.
Individual reaction mixtures were heated for 30 minutes at 37° C. on a heating block, and then 2 μl of 10% SDS - proteinase K solution was added to each reaction mixture. The resulting reaction mixtures then were heated for an additional 30 minutes at 37° C. The reaction mixtures in a loading buffer were extracted with CHCl3 prior to submarine electrophoresis on a 1% agarose gel. The DNA bands were observed visually by staining with ethidium bromide (0.5 μg/ml).

[7] = Partition coefficient in octanol/water; type: physicochemical
Protocol: The partition coefficient of the hypoxia selective cytotoxins of the present invention were determined by the method of T. Fujita et al., J. Am. Chem. Soc., 86, 5175-5180 (1964), incorporated herein by reference.

[8] = system: V79 cells; experiment: Isoeffective to the oxygen dose (IsD); type: cell-based, Chinese hamster; details: Cricetulus griseus, V79, 1 h, 7.5 Gy, 1 hour at 37° C.; read-out: Isoeffective to the oxygen dose at 7.5 Gy: IsD(7.5)
Excerpt: The survival fraction under hypoxic conditions (plotted versus compound concentration) meets the aerobic survival fraction (radiation toxicity) at the IsD. The IsD value is a useful indicator of the overall potency of a compound as a sensitizer and cytotoxin of hypoxic cells. IsD is especially useful when comparing different compounds for hypoxic cytotoxicity and radiosensitizing efficacy.
FIGS. 5 and 6 illustrate the IsD at 7.5 Gy (FIG. 5A) and 20 Gy (FIG. 5B). FIGS. 5A and 6A include a comparison to the prior art NLA-1 compound. V79 cells were irradiated at 7.5 Gy or 20 Gy after a 1 hour exposure under hypoxia (symbols) or air (straight line), at various drug concentrations. No toxicity or radiosensitization for any tested compound was observed under aerobic conditions over the tested concentration ranges. IsD values were calculated from the intersections of the survival fractions of the hypoxic curves with the survival fraction in air. All data points in FIGS. 5 and 6 represent the mean of two replicate experiments.

## Cl.O=[N+]([O-])c1nccn1CCCNc1c2ccccc2nc2ccccc12 [NLA-1, 9-[3-(2-nitro-1-imidazolyl)propylamino]acridine hydrochloride, reference compound]
[1]
  radiosensitization in vivo / in solid tumors (prior art): failure of NLA-1 as radiosensitizer in solid tumors
[2]
  factor of decrease of Ci in the presence of NH4Cl: about 3
[3]; 1 h, concentration yielding an SER of 1.6, hypoxic V79 cells, read-out: Hypoxic radiosensitizing potency: C1.6
  EC (SER 1.6): 8 µM
[3]; hypoxic radiosensitization, V79 cells (tables), read-out: Intracellular concentration at C1.6: C1.6i
  EC (SER 1.6): 885 µM
[3]; hypoxic radiosensitization, V79 cells, read-out: Intracellular concentration for an SER of 1.6: C1.6i
  EC (SER 1.6): 885 µM
[3]; aerobic
  radioprotection under aerobic conditions: afforded radioprotection under aerobic conditions
[4]; Cricetulus griseus, V79, 1 h, V79 cells, hypoxia, 1 hour, 37° C., 50% inhibition of clonogenicity
  IC50: 15 µM
[4]; V79 cells, 1 hour, 37° C.
  Hypoxic selectivity (differential aerobic/hypoxic toxicity): IC50/A,1h /IC50/H,1h: 5.5
[4]; from IC50/H, IC50/A and their ratio
  cytotoxicity / selectivity relative to THNLA-1 or NLA-1: about a two times more potent hypoxic cytotoxin
[5]
  IC50 at 1 h: 84 µM
[6]
  Topo I-dependent single-stranded DNA cleavage: observed
[6]; Topo I inhibition (50%)-dose, Topo I-induced relaxation of supercoiled DNA
  IC50: ~12 µM and 12 µM
[7]
  Partition coefficient in octanol/water: PCo/w: 0.07
[7]; read-out: Partition coefficient in octanol/water: PCo/w (converted)
  logP: -1.15
[8]
  EC (isoeffective to oxygen at 7.5 Gy): ~11 µM

Source: patent US5958947A, “DNA-affinic hypoxia selective cytotoxins” (priority 1996, dated 1999)
